Results: the RepoRT retention time repository (doi:10.1021/acs.analchem.2c02893)

Key:
Settings in all cases: stereoisomer not certain
[1] = RP, Waters ACQUITY UPLC BEH C18, 100 × 2.1 mm, 1.7 µm, 30 °C, 0.35 mL/min, estimated dead time 0.63 min; A: water + 0.01% formic acid + 5 mM ammonium formate, pH 3.71; B: acetonitrile + 0.01% formic acid, pH 3.71; gradient (min/%B) 0/10 3/10 22/100 30/100 30.1/10 40/10
[2] = RP, Thermo Scientific Acclaim RSLC 120 C18, 100 × 2.1 mm, 2.2 µm, 30 °C, 0.2 mL/min, estimated dead time 1.1 min; A: water + 0.1% formic acid, pH 2.6; B: methanol + 0.1% formic acid, pH 2.6; gradient (min/%B) 0/10 4/50 17/95 25/95 25.1/10 30/10
[3] = RP, Waters ACQUITY UPLC BEH C18, 100 × 2.1 mm, 1.7 µm, 35 °C, 0.35 mL/min, estimated dead time 0.63 min; A: water + 0.01% formic acid + 5 mM ammonium formate, pH 3.71; B: acetonitrile + 0.01% formic acid, pH 3.71; gradient (min/%B) 0/5 0.5/5 16/95 16.1/99 19/99 19.1/5 21/5
[4] = RP, Thermo Scientific Acclaim RSLC 120 C18, 100 × 2.1 mm, 2.2 µm, 30 °C, 0.2 mL/min, estimated dead time 1.1 min; A: 90% water + 10% methanol + 0.01% formic acid + 5 mM ammonium formate, pH 3.61; B: methanol + 0.01% formic acid + 5 mM ammonium formate, pH 3.61; gradient (min/%B) 0/1 1/1 2/39 13/99.9 15/99.9 15.1/1 20.1/1

Structure (SMILES)	LC retention time [4] [min]	LC retention time [1] [min]	LC retention time [2] [min]	LC retention time [3] [min]
CN(C)CC1CCCCC1(O)c1cccc(O)c1 (stereo not drawn) [Tramadol-O-Desmethyl]	4.06	3.56	3.86	3.48
COP(N)(=O)SC (stereo not drawn) [Methamidophos]	2.76	1.18	2.61	1.34
Nc1nc(N)nc(NC2CC2)n1 [Cyromazine]	2.78	1.06	2.06	1.23
COP(=O)(OC)C(O)C(Cl)(Cl)Cl (stereo not drawn) [Trichlorfon]	–	5.41	5.86	4.26
CCC(C)C1OC2(C=CC1C)CC1CC(CC=C(C)C(OC3CC(OC)C(OC4CC(OC)C(O)C(C)O4)C(C)O3)C(C)C=CC=C3COC4C(O)C(C)=CC(C(=O)O1)C34O)O2 (stereo not drawn) [Avermectin]	–	18.8	18.7	14.6
NC(=O)N=C(N)N [Guanylurea]	–	0.83	–	0.86
O=c1[nH]c2ccccc2s1 [Benzothiazole-2-OH]	–	7.78	7.4	5.76
COC(=O)c1ccccc1C(=O)OC [Phthalate-Dimethyl]	6.63	9.38	7.52	7.03
CN1CCC23c4c5ccc(O)c4OC2C(O)C=CC3C1C5 (stereo not drawn) [Morphine (MOR)]	2.54	1.21	2.11	1.47
CC(N)Cc1ccc2c(c1)OCO2 (stereo not drawn) [MDA]	4.19	3.36	3.96	3.46
C1=CCC(c2cccnc2)NC1 (stereo not drawn) [Anatabine]	2.68	1.08	3.66	1.27
C[N+](C)(C)CCCl [Chlormequate]	–	0.84	–	0.84
CCC(C)C1OC2(CCC1C)CC1CC(CC=C(C)C(OC3CC(OC)C(OC4CC(OC)C(O)C(C)O4)C(C)O3)C(C)C=CC=C3COC4C(O)C(C)=CC(C(=O)O1)C34O)O2 (stereo not drawn) [Ivermectin]	–	21.1	20.4	17
NCC(O)c1ccccc1 (stereo not drawn) [Apophedrin (Phenylethanolamine)]	–	1.38	2.34	1.65
CC12CCC(=O)C=C1CCC1C2CCC2(C)C(O)CCC12 (stereo not drawn) [Testosterone]	–	11.6	12.2	8.76
CCC(C)C1OC2(C=CC1C)CC1CC(CC=C(C)C(OC3CC(OC)C(OC4CC(OC)C(NC)C(C)O4)C(C)O3)C(C)C=CC=C3COC4C(O)C(C)=CC(C(=O)O1)C34O)O2 (stereo not drawn) [Emamectin]	–	16.3	14.3	12.6
CC(C)(C)NCC(O)c1ccc(O)c(CO)c1 (stereo not drawn) [Albuterol/Salbutamol]	–	1.28	2.71	1.92
C#CCN(C)C(C)Cc1ccccc1 (stereo not drawn) [Deprenyl/Selegiline]	–	5.98	4.32	4.53
c1cc2c(cc1CN1CCNCC1)OCO2 [Piperazine-1-Piperonyl]	–	2.63	2.56	3.2
Nc1ncn[nH]1 [Amitrole]	1.44	0.91	–	0.88
CCNC(C)Cc1cccc(C(F)(F)F)c1 (stereo not drawn) [Fenfluramine]	–	8.46	5.84	6.21
CNC(=O)Oc1cccc2c1OC(C)(C)C2O (stereo not drawn) [Carbofuran-3-hydroxy]	5.09	–	–	–
CC1(C)C(C(=O)c2cn(CCCCCF)c3ccccc23)C1(C)C [XLR-11]	11.9	–	–	–
CCNP(=S)(OC)OC(C)=CC(=O)OC(C)C (stereo not drawn) [Propetamphos]	9.79	–	–	–
COc1ccc(CC2c3cc(OC)c(OC)cc3CCN2C)cc1OC (stereo not drawn) [Laudanosine]	4.71	–	–	–
COc1ccc(C(CN(C)C)C2(O)CCCCC2)cc1 (stereo not drawn) [Venlafaxine]	6.14	–	–	–
Clc1ccccc1-c1nnc(-c2ccccc2Cl)nn1 [Clofentezine]	11.5	–	–	–
CCOP(=S)(NC(C)C)Oc1ccccc1C(=O)OC(C)C (stereo not drawn) [Isofenphos]	11.2	–	–	–
O=c1oc2ccccc2c(O)c1C(CC(O)c1ccc(-c2ccc(Br)cc2)cc1)c1ccccc1 (stereo not drawn) [Bromadiolone]	11.5	–	–	–
COc1cccc(C(=O)NN(C(=O)c2cc(C)cc(C)c2)C(C)(C)C)c1C [Methoxyfenozide]	9.56	–	–	–

Continued, in another order:

LC retention time [4] [min]	Structure (SMILES)	LC retention time [1] [min]	LC retention time [2] [min]	LC retention time [3] [min]
9.25	N#CSCSc1nc2ccccc2s1 [TCMTB]	13.4	11.4	10.1
4.59	CC(=O)Nc1ccc(S(=O)(=O)Nc2nc(C)cc(C)n2)cc1 [Sulfamethazine-N4-Acetyl]	5.03	5.06	4.03
3.24	CN=C(NC#N)NCCSCc1nc[nH]c1C [Cimetidine]	1.54	2.88	2.11
4.54	CCN(CC)CC(=O)Nc1c(C)cccc1C [Lidocaine]	5.29	4.46	4.18
1.58	NCCc1cnc[nH]1 [Histamine]	0.99	–	0.94
7.46	CC1CCc2cc(F)cc3c(=O)c(C(=O)O)cn1c23 (stereo not drawn) [Flumequine]	9.84	8.57	7.28
10.8	COc1ccc(C(=O)c2ccccc2)c(O)c1 [Benzophenon 3 (=2-Hydroxy-4-methoxybenzophenon)]	14.5	13.8	11
10.3	COC(=O)Nc1nc2ccc(Sc3ccccc3)cc2[nH]1 [Fenbendazole]	12.2	10.9	9.17
2.73	NC(=O)c1cccnc1 [Nicotinamide]	1.06	1.69	1.2
3.26	N#CC1CCCN1C(=O)CNC12CC3CC(CC(O)(C3)C1)C2 (stereo not drawn) [Vildagliptin]	1.89	2.81	2.68
6.91	CC12CC3CC(C)(C1)CC(N)(C3)C2 [Memantine]	8.04	6.63	5.86
3.75	CN1C(=O)CCC1c1cccnc1 (stereo not drawn) [Cotinine]	1.41	1.71	2.06
4.33	CCNCC(=O)Nc1c(C)cccc1C [Lidocaine-Nor]	3.59	3.97	3.56
7.23	CN1CCC(OC(c2ccccc2)c2ccccc2)CC1 [Diphenylpyraline]	–	–	–
8.71	O=C(O)c1cc(Oc2ccc(Cl)cc2Cl)ccc1[N+](=O)[O-] [Bifenox acid]	–	–	–
12	CCSC(=O)N(CC(C)C)CC(C)C [Butylate]	–	–	–
3.78	O=C(Nc1cccc(C2=NCCN2)c1)Nc1cccc(C2=NCCN2)c1 [Imidocarb]	–	–	–
4.38	NC(N)=NC(N)=NCCc1ccccc1 [Phenformin]	–	–	–
5.58	O=C(O)Cn1c(=O)sc2cccc(Cl)c21 [Benazolin]	–	–	–
4.84	CC(C)(C)NCC(O)COc1cccc2c1CCCC2=O (stereo not drawn) [Levobunolol]	–	–	–
11.2	Clc1ccccc1C(c1ccccc1)(c1ccccc1)n1ccnc1 [Clotrimazole]	–	–	–
7.84	CC12C=CC(=O)C=C1CCC1C2C(O)CC2(C)C1CCC2(O)C(=O)CO (stereo not drawn) [Prednisolone]	–	–	–
8.34	CN(C)C(CCOc1cccc2ccccc12)c1ccccc1 (stereo not drawn) [Dapoxetine]	–	–	–
9.18	CCC1OC(=O)C(C)C(OC2CC(C)(OC)C(O)C(C)O2)C(C)C(OC2OC(C)CC(N(C)C)C2O)C(C)(OC)CC(C)C(=O)C(C)C(O)C1(C)O (stereo not drawn) [Clarithromycin]	–	–	–
14.5	CC(C)([CH2][Sn+]([CH2]C(C)(C)c1ccccc1)[CH2]C(C)(C)c1ccccc1)c1ccccc1 [Fenbutatin Oxide Fragm 519]	–	–	–
8.14	COc1ccc2c(c1)N(CC(C)CN(C)C)c1ccccc1S2 (stereo not drawn) [Levomepromazine]	–	–	–
4.01	COc1ccc2[nH]cc(CC(=O)O)c2c1 [MeOT (5-)]	–	–	–
9.62	CC(C)C(O)(c1ccc(OC(F)(F)F)cc1)c1cncnc1 (stereo not drawn) [Flurprimidol]	–	–	–
